According to patent US11963959B2, “Inhibitors for coronavirus” (Southwest Research Institute, priority 2021, dated 2024):
Read-outs that look alike come from different tables or passages of the source.

Legend:
[1] = in vitro; conditions: African green monkey
[2] = PK studies in mice, subcutaneous twice-a-day dosing, plasma and lung; assay type: in vivo; design: Tmax: unit not given here; conditions: for AUC / Cmax / half-life: mouse, sc
Protocol: In addition to the above, pharmokinetic (PK) studies have been completed on additional representative compounds of the pyyroloquinazolines noted herein. More specifically, pharmokinetic studies were conducted for Compound 8, 7-(2-(fluorobenzyl)-7H-pyrrolo[3,2-f]quinazoline-1,3-diamine having the following structure:
(§1) Reference is therefore made to FIG. 8 which provides the animal (mice) compound concentration versus time plots in blood plasma for dosing of Compound 8 at 10 mg/kg, subcutaneous, twice-a-day, at time points 0, 0.5, 1, 2, 4, 8, 12 hours post dose up to 36 hours. FIG. 9 provides the animal (mice) compound concentration versus time plots also for Compound 8 in the lung at 10 mg/kg, subcutaneous, twice-a-day, at time points 0, 0.5, 1, 2, 4, 8, 12 post dose up to 36 hours.
as §1, with “FIG. 10” for “FIG. 8”, “Compound 9” for “Compound 8”, “at 25” for “at 10”, “FIG. 11” for “FIG. 9”
(§2) Reference is made to FIG. 12 which provides the animal (mice) compound concentration versus time plots in blood plasma for dosing of Compound 10 at 25 mg/kg, subcutaneous, twice-a-day, at time points 0, 0.5, 1, 2, 4, 8, 12 hours post dose up to 36 hours. FIG. 13 provides the animal (mice) compound concentration versus time plots also for Compound 10 in the lung at 25 mg/kg, subcutaneous, twice-a-day, at time points 0, 0.5, 1, 2, 4, 8, 12 hours post dose up to 36 hours.
Reference is made to FIG. 14 which provides the animal (mice) compound concentration versus time plots in blood plasma for dosing of Compound 11 at 25 mg/kg, subcutaneous, twice-a-day, at time points 0, 0.5, 1, 2, 4, 8, 12 hours post dose up to 36 hours. FIG. 15 provides the animal (mice) compound concentration versus time plots also for Compound 11 in the lung at 25 mg/kg, subcutaneous, twice-a-day, at time points 0, 0.5, 1, 2, 4, 8, 12 hours post does up to 36 hours.
as §2, with “FIG. 16” for “FIG. 12”, “Compound 12 at” for “Compound”, “10” for “10 at 25”, “FIG. 17” for “FIG. 13”, “Compound 12” for “Compound 10”, “at 10” for “at 25”

[3] = tested on: SARS-CoV-2 (USA-WA1/2020); assay: microbe, parasite or virus in culture; assay type: cell-based; conditions: for EC50 / EC90: Severe acute respiratory syndrome coronavirus 2, Vero C1008; for SI: selectivity index=CC50/EC50
[4] = 25 mg/kg subcutaneous twice-a-day
[5] = lung, 25 mg/kg subcutaneous twice-a-day
[6] = plasma, 25 mg/kg subcutaneous twice-a-day
[7] = Table 7, SARS-CoV-2 strain, VeroE6, read-out: EC50
[8] = Table 7, SARS-CoV-2 strain, VeroE6, read-out: EC90
[9] = footnote of PK table, read-out: EC50
[10] = footnote of PK table, read-out: EC90
[11] = 10 mg/kg subcutaneous twice-a-day
[12] = lung, 10 mg/kg subcutaneous twice-a-day
[13] = plasma, 10 mg/kg subcutaneous twice-a-day
[14] = Table 1, SARS-CoV-2 strain, VeroE6, two biological replicates and 8 technical replicates, read-out: EC50
[15] = Table 1, SARS-CoV-2 strain, VeroE6, two biological replicates and 8 technical replicates, read-out: EC90
[16] = Table 2, SARS-CoV-2 strain, VeroE6, read-out: EC50
[17] = Table 2, SARS-CoV-2 strain, VeroE6, read-out: EC90

## Nc1nc(N)c2c(ccc3c2ccn3Cc2ccncc2)n1 [Compound 10, 7-(pyridin-4-ylmethyl)-7H-pyrrolo[3,2-f]quinazoline-1,3-diamine]
[1]
  CC50: > 30000 nM
[2]; [4]
  tolerability: relatively well-tolerated
[2]; [5]
  Time > EC90: 63%
  Tmax: 1.2
  AUC: 7820 ng·h/mL
  Cmax: 2910 ng/mL
  half-life: 2.7 h
[2]; [6]
  AUC: 1600 ng·h/mL
  Cmax: 678 ng/mL
  half-life: 2.1 h
  Time > EC90: 44%
  Tmax: 1.2
[3]; [7]
  EC50: 80 ± 12 nM
[3]; [8]
  EC90: 240 ± 110 nM
[3]; [9]
  EC50: 0.0813 µg/mL
[3]; [10]
  EC90: 0.221 µg/mL
[3]; Table 7
  SI: >375

## Nc1nc(N)c2c(ccc3c2ccn3Cc2ccccc2F)n1 [Compound 8]
[1]
  CC50: 4890 ± 4700 nM
[2]; [11]
  tolerability: relatively well-tolerated
[2]; [12]
  Time > EC90: 98.3%
  Tmax: 98.3
  AUC: 13000 ng·h/mL
  Cmax: 4140 ng/mL
  half-life: 3.74 h
[2]; [13]
  AUC: 2140 ng·h/mL
  Cmax: 675 ng/mL
  half-life: 3.1 h
  Time > EC90: 65%
  Tmax: 1.4
[3]; [7]
  EC50: 50 ± 31 nM
[3]; [8]
  EC90: 160 ± 142 nM
[3]; [9]
  EC50: 0.0246 µg/mL
[3]; [10]
  EC90: 0.0799 µg/mL
[3]; Table 7
  SI: 98

## Nc1nc(N)c2c(ccc3c2ccn3CC2CCCCC2)n1 [Compound 12, 7-(cyclohexylmethyl)-7H-pyrrolo[3,2-f]quinazoline-1,3-diamine]
[1]
  CC50: 4910 ± 200 nM
[2]; [11]
  tolerability: relatively well-tolerated
[2]; [12]
  Time > EC90: 100%
  Tmax: 1.4
  AUC: 34100 ng·h/mL
  Cmax: 10100 ng/mL
  half-life: 3.1 h
[2]; [13]
  AUC: 968 ng·h/mL
  Cmax: 348 ng/mL
  half-life: 4.2 h
  Time > EC90: 64%
  Tmax: 1.4
[3]; [7]
  EC50: 120 ± 87 nM
[3]; [8]
  EC90: 320 ± 320 nM
[3]; [9]
  EC50: 0.0177 µg/mL
[3]; [10]
  EC90: 0.0325 µg/mL
[3]; Table 7
  SI: 41

## C=CCn1ccc2c3c(N)nc(N)nc3ccc21 [Compound 4, 7-allyl-7H-pyrrolo[3,2-f]quinazoline-1,3-diamine]
[1]
  CC50: > 30000 nM
[3]; [14]
  EC50: 470 ± 210 nM
[3]; [15]
  EC90: 850 ± 460 nM
[3]; Table 1
  SI: >63.8

## Cc1cc2c3c(N)nc(N)nc3ccc2n1Cc1ccc(C#N)cc1 [Compound 3, 4-((1,3-diamino-8-methyl-7H-pyrrolo[3,2-f]quinazolin-7-yl)methyl)benzonitrile]
[1]
  CC50: 6410 ± 700 nM
[3]; [14]
  EC50: 13 ± 5 nM
[3]; [15]
  EC90: 30 ± 20 nM
[3]; Table 1
  SI: 477.3

## Nc1nc(N)c2c(ccc3c2ccn3Cc2ccccc2C(F)(F)F)n1 [Compound 1, 7-(2-(trifluoromethyl)benzyl)-7H-pyrrolo[3,2-f]quinazoline-1,3-diamine]
[1]
  CC50: 2000 ± 250 nM
[3]
  EC50: 30 ± 10 nM
  EC90: 70 ± 30 nM
[3]; Table 1
  SI: 66.8

## O=C(c1sc(-c2ccccc2)nc1-c1ccccc1)N1C[C@H]2CNC[C@H]2C1 [Compound 5, (2,4-diphenylthiazol-5-yl)((3aR,6aS)-hexahydropyrrolo[3,4-c]pyrrol-2(1H)-yl)methanone]
[1]
  CC50: 79700 nM
[3]; [16]
  EC50: 8300 nM
[3]; [17]
  EC90: 75000 nM
[3]; Table 2
  SI: 9.6

## Nc1nc(N)c2c(ccc3c2ccn3Cc2cccnc2)n1 [Compound 9, 7-(pyridin-3-ylmethyl)-7H-pyrrolo[3,2-f]quinazoline-1,3-diamine]
[1]
  CC50: > 30000 nM
[2]; [4]
  tolerability: relatively well-tolerated
[2]; [5]
  Time > EC90: 73%
  Tmax: 1.9
  AUC: 12400 ng·h/mL
  Cmax: 3320 ng/mL
  half-life: 2.8 h
[2]; [6]
  AUC: 1190 ng·h/mL
  Cmax: 365 ng/mL
  half-life: 2.1 h
  Time > EC90: 55%
  Tmax: 1.6
[3]; [7]
  EC50: 160 ± 61 nM
[3]; [8]
  EC90: 360 ± 193 nM
[3]; [9]
  EC50: 0.058 µg/mL
[3]; [10]
  EC90: 0.142 µg/mL
[3]; Table 7
  SI: >187

## Nc1nc(N)c2c(ccc3c2ccn3Cc2ccccn2)n1 [Compound 11, 7-(pyridin-2-ylmethyl)-7H-pyrrolo[3,2-f]quinazoline-1,3-diamine]
[1]
  CC50: 15500 ± 10600 nM
[2]; [4]
  tolerability: relatively well-tolerated
[2]; [5]
  Time > EC90: 85%
  Tmax: 1.28
  AUC: 14600 ng·h/mL
  Cmax: 3270 ng/mL
  half-life: 3.3 h
[2]; [6]
  AUC: 1170 ng·h/mL
  Cmax: 348 ng/mL
  half-life: 2.6 h
  Time > EC90: 45%
  Tmax: 1.6
[3]; [7]
  EC50: 120 ± 50 nM
[3]; [8]
  EC90: 360 ± 230 nM
[3]; [9]
  EC50: 0.0435 µg/mL
[3]; [10]
  EC90: 0.142 µg/mL
[3]; Table 7
  SI: 128

## Cc1ccccc1Cn1ccc2c3c(N)nc(N)nc3ccc21 [Compound 2, 7-(2-methylbenzyl)-7H-pyrrolo[3,2-f]quinazoline-1,3-diamine]
[1]
  CC50: 4940 ± 550 nM
[3]; [14]
  EC50: 20 ± 4 nM
[3]; [15]
  EC90: 32 ± 50 nM
[3]; Table 1
  SI: 245

## O=C(c1sc(-c2ccccc2)nc1-c1ccc(Cl)cc1)N1C[C@H]2CNC[C@H]2C1 [Compound 6, (4-(4-chlorophenyl)-2-phenylthiazol-5-yl)((3aR,6aS)-hexahydropyrrolo[3,4-c]pyrrol-2(1H)-yl)methanone]
[1]
  CC50: 17100 nM
[3]; [16]
  EC50: 4200 nM
[3]; [17]
  EC90: 13300 nM
[3]; Table 2
  SI: >4.0

## O=C(c1sc(-c2ccc(Cl)cc2)nc1-c1ccccc1)N1C[C@H]2CNC[C@H]2C1 [Compound 7, (2-(4-chlorophenyl)-4-phenylthiazol-5-yl)((3aR,6aS)-hexahydropyrrolo[3,4-c]pyrrol-2(1H)-yl)methanone]
[1]
  CC50: 11000 nM
[3]; [16]
  EC50: 4700 nM
[3]; [17]
  EC90: 7960 nM
[3]; Table 2
  SI: 2.3
